Test results as given in ChEMBL document CHEMBL3044729, “Quantitative structure-activity relationships of pine weevil antifeedants, a multivariate approach” (2007).

Test system: Hylobius abietis
Assay: Antifeedant activity against Hylobius abietis (pine weevil ) in compound pre-treated Scots pine twig at 50 mM measured after 24 hr by two-choice laboratory bioassay
Assay type: functional

| Compound | AFI [%] |
| --- | --- |
| O=C(O)c1ccc2c(c1)OCO2 [PIPERONYLIC ACID] | 14 |
| COc1ccc(O)c(C(=O)O)c1 | 17 |
| COc1ccc(C(=O)O)c(O)c1 [4-METHOXYSALICYLIC ACID] | 24 |
| COC(=O)/C=C/c1ccc([N+](=O)[O-])cc1 | 32 |
| COC(=O)c1cc(O)c(O)c(O)c1 [GALLIC ACID METHYL ESTER] | 21 |
| COC(=O)/C=C/c1ccc(N(C)C)cc1 | 49 |
| COc1ccccc1CCC(=O)O | 12 |
| CC(C)OC(=O)/C=C/c1ccccc1 [ISOPROPYL CINNAMATE] | 96 |
| COC(=O)CCc1cccc(OC)c1OC | 86 |
| COC(=O)CCc1ccc(N)cc1 | 29 |
| COC(=O)c1ccc(O)cc1O [METHYL 2,4-DIHYDROXYBENZOATE] | 46 |
| COC(=O)CCc1cc(OC)c(OC)c(OC)c1 | 26 |
| COc1ccc(C(=O)O)cc1OC [VERATRIC ACID] | 7 |
| COC(=O)c1cccc(OC)c1OC [METHYL 2,3-DIMETHOXYBENZOATE] | 73 |
| CCNC(=O)c1cc(OC)cc(OC)c1 | 86 |
| O=C(O)c1ccccc1O [SALICYLIC ACID] | 21 |
| COc1cc(C(=O)O)cc(OC)c1O [SYRINGIC ACID] | 8 |
| C=CCc1ccc(OC(=O)c2cc(OC)cc(OC)c2)c(OC)c1 | 17 |
| CCOC(=O)CC(O)c1ccccc1Br (racemic) | 59 |
| CCOC(=O)/C=C/c1ccccc1 [ETHYL CINNAMATE] | 83 |
| COC(=O)c1ccc(O)c(OC)c1 [METHYL VANILLATE] | 53 |
| COC(=O)c1cc(Br)cc(Br)c1 [METHYL 3,5-DIBROMOBENZOATE] | 50 |
| CC(C)OC(=O)c1ccc(O)cc1 [ISOPROPYL 4-HYDROXYBENZOATE] | 63 |
| COC(=O)CCc1ccc(Cl)cc1 | 100 |
| CC/C=C/CCOC(=O)c1cc(OC)cc(OC)c1 | 62 |
| COC(=O)c1c(OC)cc(OC)cc1OC [METHYL 2,4,6-TRIMETHOXYBENZOATE] | 55 |

| Compound | AFI [%] |
| --- | --- |
| CCOC(=O)C(Br)C(Br)c1ccccc1 (racemic; form 2) | 45 |
| COc1ccc(C(=O)O)cc1O [ISOVANILLIC ACID] | 51 |
| COC(=O)c1ccc(O)cc1 [METHYLPARABEN] | 34 |
| COc1cc(C(N)=O)cc(OC)c1OC [3,4,5-TRIMETHOXYBENZAMIDE] | -2 |
| CCOC(=O)CCc1ccccc1 [ETHYL 3-PHENYLPROPANOATE] | 73 |
| COC(=O)CCc1ccc(N(C)C)cc1 | 84 |
| COC(=O)c1c(OC)cccc1OC [METHYL 2,6-DIMETHOXYBENZOATE] | 51 |
| COC(=O)CCc1ccc(C(C)C)cc1 | 94 |
| COC(=O)c1cc(O)cc(O)c1 [METHYL 3,5-DIHYDROXYBENZOATE] | 23 |
| COC(=O)c1cccc(OC)c1O [METHYL 2-HYDROXY-3-METHOXYBENZOATE] | 95 |
| COC(=O)C(C)Cc1ccccc1 (racemic) | 79 |
| COC(=O)c1ccc(OC)c(Cl)c1 [METHYL 3-CHLORO-4-METHOXYBENZOATE] | 36 |
| COC(=O)c1cccc(O)c1OC [METHYL 3-HYDROXY-2-METHOXYBENZOATE] | 75 |
| COC(=O)/C=C/c1ccc(C(F)(F)F)cc1 | 62 |
| O=C(O)c1ccc(O)cc1 [PARABEN] | 31 |
| O=C(O)c1cc(O)cc(O)c1 [3,5-DIHYDROXYBENZOIC ACID] | 41 |
| CCCCCCCCc1ccc(C(=O)OC)cc1 | 35 |
| COC(=O)c1cccc(OC)c1 [METHYL 3-METHOXYBENZOATE] | 89 |
| CCCCCCCCCCCCOC(=O)c1ccc(OC)c(OC)c1 [DODECYL 3,4-DIMETHOXYBENZOATE] | 23 |
| COC(=O)CCc1ccc(Cl)c(Cl)c1 | 98 |
| COC(=O)c1c(O)cccc1OC [METHYL 2-HYDROXY-6-METHOXYBENZOATE] | 74 |
| COC(=O)CCc1cc(OC)cc(OC)c1 | 89 |
| COC(=O)c1cc(O)cc(OC)c1 | 54 |
| COC(=O)/C=C/c1ccc(OC)c(OC)c1 | 36 |
| COC(=O)/C=C/c1ccc(C)cc1 | 76 |
| COc1cccc(C(=O)O)c1O | 22 |

| Compound | AFI [%] |
| --- | --- |
| COC(=O)/C=C/c1ccc(C(C)C)cc1 | 92 |
| COC(=O)c1ccc(O)c(O)c1 [METHYL PROTOCATECHUATE] | -7 |
| COC(=O)CCc1ccc(OC)c(OC)c1 | 35 |
| COc1cc(OC)cc(C(=O)OCCCc2ccc(OC)c(OC)c2)c1 | 41 |
| COc1ccc(C(=O)OC(C)C)c(OC)c1 [ISOPROPYL 2,4-DIMETHOXYBENZOATE] | 96 |
| COC(=O)CCc1ccc(F)cc1 | 98 |
| COC(=O)CCc1ccc(O)cc1 [4-HYDROXYHYDROCINNAMIC ACID METHYL ESTER] | 21 |
| COC(=O)CCc1ccccc1C | 91 |
| CCC(C)OC(=O)/C=C/c1ccccc1 (stereo not drawn) [SEC-BUTYL CINNAMATE] | 48 |
| CCCOC(=O)/C=C/c1ccccc1 [PROPYL CINNAMATE] | 85 |
| COC(=O)c1cc(O)ccc1OC | -3 |
| CCOC(=O)C(Br)C(Br)c1ccccc1 (racemic; form 1) | 75 |
| COC(=O)c1cc(OC)ccc1OC [METHYL 2,5-DIMETHOXYBENZOATE] | 89 |
| COc1cc(OC)cc(C(=O)OCC(F)(F)F)c1 | 86 |
| CCCCOc1ccc(CCC(=O)OC)cc1 | 70 |
| COC(=O)c1ccc(OC)c(O)c1 [ISOVANILLIC ACID METHYL ESTER] | 65 |
| CCCCOC(=O)/C=C/c1ccccc1 [BUTYL CINNAMATE] | 38 |
| COC(=O)C(Br)C(Br)c1ccccc1 (racemic) | 50 |
| COC(=O)CCc1ccc(OC)cc1 | 96 |
| COC(=O)c1ccc(O)cc1OC [METHYL 4-HYDROXY-2-METHOXYBENZOATE] | 35 |
| COC(=O)c1c(C)cc(O)c(C)c1O [ATRARIC ACID] | 31 |
| COC(=O)CCc1ccc(OC)c(Br)c1 | 68 |
| COC(=O)c1ccc(OC)cc1OC [METHYL 2,4-DIMETHOXYBENZOATE] | 99 |
| COC(=O)/C=C/c1ccc(OC)cc1OC | 96 |
| CC(=O)Oc1cc(C(=O)O)cc(OC(C)=O)c1OC(C)=O [3,4,5-TRIACETOXYBENZOIC ACID] | 14 |
| CCSC(=O)c1cc(OC)cc(OC)c1 | 74 |

| Compound | AFI [%] |
| --- | --- |
| COC(=O)CCc1ccc(Br)cc1 | 97 |
| COC(=O)CCc1ccc(C(F)(F)F)cc1 | 57 |
| COC(=O)c1cc([N+](=O)[O-])cc([N+](=O)[O-])c1 [METHYL 3,5-DINITROBENZOATE] | 34 |
| COC(=O)c1ccc(OC)cc1 [METHYL 4-METHOXYBENZOATE] | 54 |
| COC(=O)c1cc(C)cc(C)c1 [METHYL 3,5-DIMETHYLBENZOATE] | 61 |
| COC(=O)CCc1ccc(O)c(OC)c1 [DIHYDROFERULIC ACID METHYL ESTER] | 54 |
| CCOC(=O)CC(O)c1ccccc1 (racemic) | 36 |
| COC(=O)c1ccc2c(c1)OCO2 [METHYL 3,4-METHYLENEDIOXYBENZOATE] | 57 |
| COC(=O)c1cc(OC)ccc1O [METHYL 2-HYDROXY-5-METHOXYBENZOATE] | 74 |
| COC(=O)c1ccccc1OC [METHYL 2-METHOXYBENZOATE] | 80 |
| COC(=O)CCc1ccccc1 [METHYL 3-PHENYLPROPANOATE] | 44 |
| COc1cc(C(=O)O)ccc1O [VANILLIC ACID] | 48 |
| COc1cc(OC)cc(C(=O)O)c1 [3,5-DIMETHOXYBENZOIC ACID] | -4 |
| COC(=O)CCc1ccc(C)cc1C | 100 |
| COC(=O)CCc1cccc(OC)c1 | 95 |
| COC(=O)/C=C/c1cccc(OC)c1OC | 99 |
| COC(=O)/C=C/c1cc(OC)cc(OC)c1 | 72 |
| COC(=O)CCc1ccc(C)cc1 | 99 |
| COC(=O)CCc1ccc(C(C)=O)cc1 | 14 |
| COC(=O)c1ccc(OC)c(OC)c1OC [METHYL 2,3,4-TRIMETHOXYBENZOATE] | 54 |
| COC(=O)CCc1ccccc1OC | 97 |
| COc1ccc(CCC(=O)OC(C)C)cc1 | 83 |
| Cc1ccccc1CCC(=O)O | 47 |
| COC(=O)CCc1cccc(C)c1 | 90 |
| COC(=O)c1cc(OC)cc(OC)c1 [METHYL 3,5-DIMETHOXYBENZOATE] | 95 |
